“And” between values parts separate entries of the source, which are not always exact repeats. Identical values can stand only once. Like-named read-outs stand apart in the source and are kept apart here.
What was measured:
P. falciparum PH3 = experiment: In vitro blood stage antimalarial efficacy, [3H]hypoxanthine uptake, strain PH3; assay type: cell-based; details: Plasmodium falciparum; read-out: IC50
Procedure: (§1) In Vitro Blood Stage Antimalarial Efficacy Evaluation. New compounds were tested against a panel of strains of P. falciparum.
(§2) Test compounds were initially dissolved in DMSO and diluted 400 fold in RPMI 1640 culture medium supplemented with 25 mM Hepes, 32 mM NaHCO3 and 10% Albumax I (Gibco, NY). These solutions were subsequently serially diluted two-fold with a Beckman Biomek® 1000 Robot (Fullerton, Calif.) over 11 different concentrations. The parasites were exposed to serial dilutions of each compound for 48 hrs and incubated at 37° C. with 5% O2, 5% CO2 and 90% N2 prior to the addition of [^3H]hypoxanthine. After a further incubation of 18 hrs, parasite DNA was harvested from each microtiter well using Packard Filtermate™ 196 Harvester (Meriden, Conn.) onto glass filters. Uptake of [^3H]hypoxanthine was measured with a Packard TopCount Liquid Scintillation Counter (Packard Instrument Co.).

P. falciparum DD2 = experiment: In vitro blood stage antimalarial efficacy, [3H]hypoxanthine uptake, strain DD2; assay type: cell-based; details: Plasmodium falciparum, read-out: IC50
Procedure: as §1, §2

P. falciparum TM6 = experiment: In vitro blood stage antimalarial efficacy, [3H]hypoxanthine uptake, strain TM6; assay type: cell-based; details: Plasmodium falciparum; read-out: IC50
Procedure: as §1, §2

P. falciparum K1 = experiment: In vitro blood stage antimalarial efficacy, [3H]hypoxanthine uptake, strain K1; assay type: cell-based; details: Plasmodium falciparum, read-out: IC50
Procedure: as §1, §2

P. falciparum TM4 = experiment: In vitro blood stage antimalarial efficacy, [3H]hypoxanthine uptake, strain TM4; assay type: cell-based; details: Plasmodium falciparum; read-out: IC50
Procedure: as §1, §2

[1] = tested on: Liver stage of P. yoelii yoelii; experiment: In vitro liver-stage antimalarial efficacy evaluation; assay type: cell-based; details: Plasmodium yoelii
Procedure: In Vitro Liver-Stage Antimalarial Efficacy Evaluation. Any new desirable antimalarial drug should be broad spectrum: it should be active against both the blood stage and the liver stage of the parasite. New compounds were assessed on the Plasmodium yoelii liver stage in vitro. The liver stage of P. yoelii is a parasite of rodent extensively used as an experimental model for studying the initial phase of the malaria infection.

P. berghei NK-65 = experiment: In vivo efficacy in Swiss mice infected with P. berghei; details: Plasmodium berghei
[2] = tested on: P. falciparum African NF54 strain; experiment: In vivo efficacy in immunocompromised BXN mice infected with P. falciparum NF54; details: Plasmodium falciparum, 96 h, oral once daily for 4 days
Source text: Antimalarial efficacy data was obtained by evaluating new compounds in two rodent models: (I) Swiss mice infected with rodent malaria strain P. berghei; (II) Immunocompromised BXN mice infected with either the sensitive P. falciparum African NF54 strain or the multi-drug resistant P. falciparum Thailand T24 strain.

[3] = tested on: chloroquine-resistant FVO strain of P. falciparum; experiment: Efficacy against blood stages of P. falciparum in Aotus monkeys; assay type: in vivo; details: oral for 3 days
Procedure: In Vivo Efficacy Studies in Aotus Monkey Model. The monkeys selected for the study had active infections of the chloroquine-resistant FVO strain of P. falciparum. Once parasitemias reached 5,000/μl (or as deemed appropriate by the attending veterinarian), they were treated orally with Formula B or Formula C at 2, 4, 8, or 16 mg/kg/day for 3 days. For compound Formula B, the dosage needed to cure 50% of animals was 4 mg/kg/day and the dosage needed to cure 100% of animals was 16 mg/kg/day. For compound Formula C, the 50% curative dose was 2 mg/kg/day and the 100% curative dose was 8 mg/kg/day (Table 7).
Malaria-naive Panamanian owl monkeys (Aotus lemurinus lemurinus) were used as hosts for chioroquine-resistant P. falciparum. The chloroquine-resistant Vietnam Smith strain was used in the initial experiments. In subsequent studies, a recrudescent isolate from a Vietnam Smith strain infected Aotus monkey treated with chloroquine was used.
The inoculum size produced a parasitemia of at least 5×10^3/mm^3 by the fifth day postinoculation, at which time treatment was begun. Stock solutions of water-soluble drug were prepared at appropriate concentrations and maintained at 4° C. during the course of treatment. A suspension of water-insoluble drugs was prepared in 0.3% methylcellulose just prior to use. All drugs were administered by gastric intubation in a volume of 7.0 ml, followed by a 7.0-mi rinse with either water or 0.3% methylcellulose. Test drug was given orally for either three or seven consecutive days. In several experiments, the putative resistance modulator was given three times per day (8:00 AM, noon, and 4:00 PM) for three or seven days.
Giemsa-stained blood smears were prepared from all animals and examined daily beginning the day after inoculation until parasitemia was cleared and for at least seven days thereafter. At that time, blood films were examined twice a week up to 100 days after treatment. Thick blood films were considered negative if no parasites were seen after examination for at least five min. Ten or less parasites on a thick blood film were recorded as <10. Parasitemia was enumerated and expressed as number of parasites/mm^3. Treated animals were observed twice a day for signs of drug toxicity, as evidenced by abnormal behavior, anorexia, diarrhea, or vomiting. Necropsies were per formed on all animals that died. In conducting the research described in this report, the investigators adhered to the Guide for the Care and Use of Laboratory Animals, as promulgated by the National Research Council.
The outcome of each infection was compared with untreated controls and monkeys treated with chloroquine. […]

[4] = tested on: Plasmodium cynomolgi sporozoite; experiment: Causal prophylactic activity in P. cynomolgi sporozoite-challenged Rhesus monkeys; assay type: in vivo; details: PO, 15 mg/kg, 1 daily for 3 days, one value per monkey
Source text: Two monkeys were used in each test group. The control animals developed parasitemia in about 10 days after inoculation of about 1×10^6 P. cynomolgi sporozoites harvested from Anopheles dirus. All the monkeys received three treatments, once a day for three consecutive days beginning a day before (−1, 0,+1) the sporozoites challenge. The control monkeys (group 1) received HECT and the experimental animals received testing compound by using 8 Fr., 15-in. long nasogastric tubes.

in vivo = details: Sprague-Dawley, rat, po; for MTD at 2 weeks: MTD (maximum tolerated dose)
[5] = 96 h, P. berghei NK-65, Swiss mice, oral once daily for 4 days, read-out: ED50
[6] = read-out: ED50 (the dose leading to 50% parasite growth inhibition compared to the blank control)

SMILES | IC50 (P. falciparum PH3) [nM] | IC50 (P. falciparum DD2) [nM] | IC50 (P. falciparum TM6) [nM] | IC50 (P. falciparum K1) [nM] | IC50 (P. falciparum TM4) [nM] | IC50 [1] [nM] | ED50 (P. berghei NK-65; [5]) [mg/kg] | ED50 (P. berghei NK-65; [6]) [mg/kg] | ED50 [2] [mg/kg] | Dosage needed to cure 50% of animals (50% curative dose) [3] [mg/kg/day] | Dosage needed to cure 100% of animals (100% curative dose) [3] [mg/kg/day] | Parasite patency (days postinoculation) [4] | NOAEL at 2 weeks (in vivo) [mg/kg/day] | MTD at 2 weeks (in vivo) [mg/kg]
CC[C@@H](N)[C@H](O)[C@H](O)[C@H](COC)[C@@H]1CC[C@@]23CC24c2nc5ccc(OC)cc5cc2C(=O)N[C@H]4CN13 (stereo partly shown) [Formula B] | 0.17 ± 0.04 | 0.27 ± 0.07 | 0.18 ± 0.03 | 0.22 ± 0.05 | 0.23 ± 0.04 | 5.8 | 0.13 | < 1 | 0.24 | 4 | 16 | 41 days and 55 days | > 100 | > 500
COC[C@@H]([C@@H](O)[C@@H](O)[C@H](N)Cc1ccccc1)[C@@H]1CC[C@@]23CC24c2nc5ccc(OC)cc5cc2C(=O)N[C@H]4CN13 (stereo partly shown) [Formula C] | 0.19 ± 0.04 | 0.16 ± 0.03 | 0.09 ± 0.02 | 0.25 ± 0.04 | 0.31 ± 0.07 | 7.1 | 0.11 | < 1 | 0.2 | 2 | 8 | 48 days and 64 days | > 100 | > 500
